Reference: paper PMC11188305, “Reproductive and fetal toxicity studies of histamine H3 receptor antagonist DL76 used in mice to prevent maximal electroshock-induced seizure” (Frontiers in Pharmacology, 2024)

Tests used:
[1] = system: MES-induced seizures in mice; test: Maximal electroshock (MES)-induced seizure, duration of tonic hind limb extension (THLE); type: in vivo, C57BL/6J mice; conditions: for protection compared with reference drug VPA: DL76 60 mg/kg i.p. vs VPA 300 mg/kg; for mean difference in THLE: DL76 60 mg/kg vs saline-, DL76 7.5, 15, 30 mg/kg groups, p < 0.05
Description: As previously described and with a slight modification in the intensity applied, seizures were elicited in mice with a 50-Hz alternating current of 120 mA intensity ([Kaminski et al., 2015]; [Song et al., 2020]; [Xiao et al., 2021]; [Hua et al., 2023]). The current was applied through ear electrodes for 0.2 s. Protection against the spread of MES-induced convulsion was defined as the abolition of the tonic hind limb extension (THLE) component of the seizure ([Kaminski et al., 2015]; [Song et al., 2020]; [Xiao et al., 2021]; [Hua et al., 2023]). The animals were divided into the following experimental groups, with eight mice in each: the control group injected with saline, the positive control group injected with 300 mg/kg of VPA (the minimal dose of VPA that protected animals against the spread of MES-induced convulsions without mortality in mice) ([Sadek et al., 2015]; [Bastaki et al., 2018]), and four groups that were administered the test compound DL76 at doses of 7.5 mg/kg, 15 mg/kg, 30 mg/kg, or 60 mg/kg. All drugs were administered 30–45 min before the MES challenge. In a further group of eight mice, the most promising and protective dose of DL76 (60 mg/kg, i.p.) was co-injected with RAM (10 mg/kg, i.p.), 30 min apart and 15 min prior to the MES test. Protection against the spread of MES-induced convulsion was defined as the abolition of the THLE component of the convulsion ([Sadek et al., 2015]; [Alachkar et al., 2018]; [Bastaki et al., 2018]).
Statistical analyses employed SPSS 26.0 (IBM Middle East, Dubai, UAE). Data were presented as means ± SEM. […] Fetal abnormality data were presented as counts and percentages. Fisher’s exact test compared the percentages of abnormalities between the control group (saline) and the different dose groups. All tests were two-tailed, and significance was set at p < 0.05.

[2] = target: hH3R; set-up: method as in Lazewska et al. (2006); conditions: CHO K1 cells; [125I]Iodoproxyfan binding assay; ref Lazewska et al. (2006); cited from earlier work
[3] = target: T1, hH1R (Homo sapiens, UniProt P35367); test: hH1R radioligand binding, [3H]pyrilamine in CHO K1 cells; conditions: protocol of Lazewska et al., 2017
T1 construct: expressed in transfected cells; host or cells: CHO K1 cells
T1 sequence (P35367 whole entry): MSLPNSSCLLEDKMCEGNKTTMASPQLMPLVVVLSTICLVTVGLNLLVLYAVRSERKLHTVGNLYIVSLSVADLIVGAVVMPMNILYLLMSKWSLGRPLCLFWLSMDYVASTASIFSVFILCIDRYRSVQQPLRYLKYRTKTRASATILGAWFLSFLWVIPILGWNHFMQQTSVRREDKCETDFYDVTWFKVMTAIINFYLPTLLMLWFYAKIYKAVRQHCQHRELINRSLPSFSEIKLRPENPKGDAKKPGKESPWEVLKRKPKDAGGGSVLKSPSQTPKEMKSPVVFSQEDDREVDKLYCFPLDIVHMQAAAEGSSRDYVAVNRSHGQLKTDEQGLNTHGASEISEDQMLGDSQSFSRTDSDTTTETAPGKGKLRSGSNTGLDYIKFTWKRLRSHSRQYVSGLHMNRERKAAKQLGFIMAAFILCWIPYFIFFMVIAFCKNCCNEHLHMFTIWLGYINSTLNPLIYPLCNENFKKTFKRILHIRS

[4] = set-up: method as in Canale et al., 2021; conditions: ref Canale et al., 2021; cited from earlier work
[5] = target: adrenergic α2 receptor; test: adrenergic α2 receptor binding, [3H]clonidine in rat cerebral cortex; conditions: protocol of Canale et al., 2021
[6] = target: hH4R; set-up: method as in Lazewska et al. (2020) and Canale et al. (2021); conditions: Sf9 cells; [3H]histamine; ref Lazewska et al. (2020) and Canale et al. (2021); cited from earlier work
[7] = target: T2, hN neuronal α4β2 (Homo sapiens, UniProt P17787+P43681); test: hN neuronal α4β2 binding, [3H]cystine in SH-SY5Y cells (Eurofins Cerep)
T2 construct: host or cells: SH-SY5Y cells
T2 sequence (P43681 29-627 limits assumed): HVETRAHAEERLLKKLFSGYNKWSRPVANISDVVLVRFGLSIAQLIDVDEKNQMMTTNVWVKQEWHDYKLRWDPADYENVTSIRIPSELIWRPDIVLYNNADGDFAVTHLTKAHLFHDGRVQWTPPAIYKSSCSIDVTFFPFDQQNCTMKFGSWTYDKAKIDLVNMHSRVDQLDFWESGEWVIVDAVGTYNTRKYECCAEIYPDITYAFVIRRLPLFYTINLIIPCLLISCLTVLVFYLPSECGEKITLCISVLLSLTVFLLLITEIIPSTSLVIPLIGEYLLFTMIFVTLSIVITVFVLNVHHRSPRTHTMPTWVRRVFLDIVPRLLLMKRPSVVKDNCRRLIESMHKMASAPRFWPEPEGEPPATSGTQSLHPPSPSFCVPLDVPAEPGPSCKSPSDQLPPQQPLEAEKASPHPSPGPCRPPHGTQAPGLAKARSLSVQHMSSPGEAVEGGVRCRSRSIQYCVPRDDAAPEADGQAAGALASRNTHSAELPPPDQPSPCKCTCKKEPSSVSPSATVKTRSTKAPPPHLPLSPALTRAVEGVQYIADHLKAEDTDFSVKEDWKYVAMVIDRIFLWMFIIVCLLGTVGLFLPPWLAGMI
T2 sequence (P17787 26-502): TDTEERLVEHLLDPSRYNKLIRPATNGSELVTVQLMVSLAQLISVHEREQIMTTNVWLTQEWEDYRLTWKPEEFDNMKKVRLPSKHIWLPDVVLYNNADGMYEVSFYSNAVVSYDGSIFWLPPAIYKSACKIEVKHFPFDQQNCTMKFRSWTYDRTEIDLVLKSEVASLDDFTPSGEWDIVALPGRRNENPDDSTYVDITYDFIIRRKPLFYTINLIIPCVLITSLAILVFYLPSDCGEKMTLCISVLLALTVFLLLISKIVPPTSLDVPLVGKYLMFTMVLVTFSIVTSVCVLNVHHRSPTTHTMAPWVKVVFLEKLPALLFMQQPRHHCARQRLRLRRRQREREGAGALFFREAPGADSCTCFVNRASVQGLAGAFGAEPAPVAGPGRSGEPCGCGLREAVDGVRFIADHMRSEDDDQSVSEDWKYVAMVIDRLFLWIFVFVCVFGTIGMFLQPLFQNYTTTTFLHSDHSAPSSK

Q: With `CC(C)(C)c1ccc(OCCCN2CCCCC2)cc1` [DL76, 1-(3-(4-tert-butyl-phenoxy)propyl) piperidine] as the compound, how does the “difference of protective effects between male and female mice” value ([1]; DL76 7.5, 15, 30 and 60 mg/kg i.p., p = 0.70, 0.685, 0.151, 0.398) read?
A: no significant differences

Q: And the “THLE compared with reference drug VPA (300 mg/kg, i.p.)” value ([1]; both sexes of adult mice, DL76 30 mg/kg and 60 mg/kg)?
A: no significant differences

Q: And the “THLE values compared with VPA” value ([1]; both sexes of adult mice, lower doses of DL76 7.5 mg/kg and 15 mg/kg i.p.)?
A: significant difference

Q: And the “mean difference, saline + saline vs. DL76 + RAM” value ([1]; female adult mice, DL76 60 mg/kg + RAM 10 mg/kg i.p., p = 0.17)?
A: 1.33

Q: And the “protection after co-administration of RAM” value ([1]; female adult mice, DL76 60 mg/kg i.p. + RAM 10 mg/kg i.p. 15 min before MES)?
A: abrogated

Q: And the “protection compared with reference drug VPA” value ([1]; female adult mice, p = 0.72)?
A: comparable

Q: And the “mean difference in THLE” value ([1]; female adult mice, 2nd of three printed values)?
A: 10.63 s

Q: What about the “mean difference in THLE” value ([1]; female adult mice, 3rd of three printed values) of the same compound?
A: 3.13 s

Q: What about the “protection against MES-induced convulsions” value ([1]; female adult mice, DL76 7.5–60 mg/kg i.p.) of the same compound?
A: significantly protected

Q: And the “protection against MES-induced seizures” value ([1]; female and male mice, 7.5, 15, 30 and 60 mg/kg i.p., acute)?
A: significant and dose-dependent protection

Q: What about the “mean difference of THLE, saline vs. DL76+RAM” value ([1]; male adult mice, DL76 60 mg/kg + RAM 10 mg/kg i.p., p = 0.094) of the same compound?
A: 2.5 s

Q: And the “protection after co-injection with H3R agonist RAM” value ([1]; male adult mice, DL76 60 mg/kg i.p. + RAM 10 mg/kg i.p. 15 min before MES)?
A: reversed

Q: And the “mean difference of THLE” value ([1]; male adult mice, DL76 60 mg/kg i.p. vs DL76 (7.5 mg/kg)-treated group)?
A: 7.25 s

Q: What about the “mean difference of THLE” value ([1]; male adult mice, DL76 60 mg/kg i.p. vs DL76 (15 mg/kg)-treated group) of the same compound?
A: 8.88 s

Q: And the “mean difference of THLE” value ([1]; male adult mice, DL76 60 mg/kg i.p. vs DL76 (30 mg/kg)-treated group)?
A: 10.75 s

Q: What about the “protection compared with reference drug VPA” value ([1]; male adult mice, p = 1.000) of the same compound?
A: comparable

Q: What about the “protective effect on MES-induced convulsions vs saline” value ([1]; male adult mice, all doses 7.5, 15, 30, 60 mg/kg i.p., all p <0.0001) of the same compound?
A: substantial protective effects

Q: And the Ki [2]?
A: 22 nM

Q: What about the Ki [3] of the same compound?
A: 849 ± 67 nM

Q: And the antiparkinsonian effects [4]?
A: antiparkinsonian effects

Q: What about the Ki [5] of the same compound?
A: > 5000 nM

Q: And the Ki [6]?
A: 66000 nM

Q: And the inhibition at 1 µM [7]?
A: 3%
